Measurements reported in patent US20240279233A1, “MACROCYCLIC TAK1 INHIBITORS” (Aqilion AB, priority 2021, published 2024).
In brackets after ≈: the same amount, converted by molar mass. Like-named read-outs stand apart in the source and are kept apart here.

Assays:
[1] = amide bond, 14-membered ring
[2] = Solubility assay in phosphate buffer; conditions: phosphate buffer, pH 7.4, aqueous buffer, kinetic from dmso stock, Solubility (μM), phosphate buffer 100 mM, pH 7.4, room temperature, 20-24 h, LC-UV
Procedure: The aqueous solubility of selected example compounds was determined as follows; 6 μL of DMSO stock solution of the selected example was added to 594 μL phosphate buffer (100 mM, pH 7.4). The resulting mixture was equilibrated over night (20-24 h, Alligator Shaker, room temperature). The mixture was then filtered (Millex LH 0.45 μm) and the concentration/solubility was determined by LC-UV quantification.

[3] = molecular target: human recombinant TAK1-TAB1 Kinase (TAK1 (1-303) and TAB1 (437-end)) (Homo sapiens (Human), UniProt O43318); assay: TAK1 biochemical ADP-Glo kinase assay; conditions: MBP substrate
Sequence of human recombinant TAK1-TAB1 Kinase (TAK1 (1-303) and TAB1 (437-end)) (O43318 other isoform, or with tags, fused parts or gaps): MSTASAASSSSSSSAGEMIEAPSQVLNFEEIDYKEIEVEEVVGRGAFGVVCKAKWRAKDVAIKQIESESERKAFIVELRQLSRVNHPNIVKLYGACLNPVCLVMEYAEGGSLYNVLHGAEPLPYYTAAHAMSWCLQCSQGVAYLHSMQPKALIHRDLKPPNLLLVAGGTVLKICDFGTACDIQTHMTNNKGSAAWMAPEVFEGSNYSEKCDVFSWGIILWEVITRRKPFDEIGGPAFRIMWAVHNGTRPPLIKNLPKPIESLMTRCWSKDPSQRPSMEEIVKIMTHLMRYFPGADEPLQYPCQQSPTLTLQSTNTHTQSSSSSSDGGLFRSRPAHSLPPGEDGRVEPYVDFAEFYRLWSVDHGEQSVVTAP
Procedure, shortened: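 Inhibition of human recombinant TAK1-TAB1 kinase was measured with a Promega ADP-Glo luminescence assay in 384-well plates. Compounds in 5% DMSO were pre-incubated 10 min with 2 μl TAK1-TAB1 (7.5 ng/μl) in buffer of Tris pH 7.5, MgCl2, DTT and BSA. MBP substrate and ATP were then added for 1 hour at room temperature. ADP-Glo reagent and kinase detection substrate followed, luminescence was read on an Envision, and IC50 came from non-linear regression.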

[4] = amide bond, 14-membered ring; remark: listed apart in the source
[5] = 10 μM ATP, read-out: TAK1 Mean IC50 (nM) @ 10 μM ATP

SMILES	solubility [2]	IC50 [3, 5]	also measured
C#Cc1cccc2nc3n(c12)[C@@H](C)CCCCNC(=O)c1cccc(c1)C(=O)N3	–	–	ring closure, isolated yield ([1]; from C#Cc1cccc2nc(NC(=O)c3cccc(C(=O)O)c3)n([C@@H](C)CCCCN)c12, TCFH/NMI, MeCN/DMF, 0.82 mM, 0.0 °C, 4.0 h): 73%
CC1CCCCNC(=O)c2cccc(c2)C(=O)Nc2nc3cccc(N4CCCC4=O)c3n21 (stereo not shown)	–	–	ring closure, isolated yield ([1]; from CC(CCCCN)n1c(NC(=O)c2cccc(C(=O)O)c2)nc2cccc(N3CCCC3=O)c21, TCFH/NMI, DMF/MeCN, 4.2 mM, 25.0 °C, 2.5 h): 7.7%
CCOC(=O)c1cnc(Cl)c2nc3n(c12)[C@@H](C)CCCCNC(=O)c1cccc(c1)C(=O)N3	–	–	ring closure, isolated yield ([1]; from CCOC(=O)c1cnc(Cl)c2nc(NC(=O)c3cccc(C(=O)O)c3)n([C@@H](C)CCCCN)c12, TCFH/NMI, MeCN/DMF, 1.29 mM, 0.0 °C, 4.0 h): 49%
COC(=O)c1cc(Br)cc2nc3n(c12)[C@@H](C)CCCCNC(=O)c1cccc(c1)C(=O)N3	–	–	ring closure, isolated yield ([1]; from COC(=O)c1cc(Br)cc2nc(NC(=O)c3cccc(C(=O)O)c3)n([C@@H](C)CCCCN)c12, TCFH/NMI, DMF/MeCN, 1.4 mM, 0.0 °C, 16.0 h): 30%
C[C@H]1CCCCNC(=O)c2cccc(c2)C(=O)Nc2nc3ccnc(Cl)c3n21	–	–	ring closure, isolated yield ([1]; from C[C@@H](CCCCN)n1c(NC(=O)c2cccc(C(=O)O)c2)nc2ccnc(Cl)c21, TCFH/NMI, DMF/MeCN, 0.6 mM, 25.0 °C, 3.0 h): 20%
Cc1nnc(-c2cccc3nc4n(c23)C(C)CCCCNC(=O)c2cccc(c2)C(=O)N4)o1 (stereo not shown)	–	–	ring closure, isolated yield ([1]; from Cc1nnc(-c2cccc3nc(NC(=O)c4cccc(C(=O)O)c4)n(C(C)CCCCN)c23)o1, HATU/DIEA, THF, 0.5 mM, 25.0 °C, 16.0 h, 2 steps): 13%
CN1CCN(Cc2cc(C(=O)N(C)C)c3c(c2)nc2n3CCCCCNC(=O)c3cccc(c3)C(=O)N2)CC1 [Example 27, (E)-N,N-dimethyl-1^5-((4-methylpiperazin-1-yl)methyl)-3,5-dioxo-1^2,1^3-dihydro-1^1H-2,6-diaza-1(2,1)-benzo[d]imidazola-4(1,3)-benzenacycloundecaphane-1^7-carboxamide]	61.3 µM (≈ 32.6 µg/mL)	8 nM	ring closure, yield after HPLC ([4]; from CN1CCN(Cc2cc(C(=O)N(C)C)c3c(c2)nc(NC(=O)c2cccc(C(=O)O)c2)n3CCCCCN)CC1, HATU/DIEA, THF, then DMF, 0.46 mM, 40.0 °C, 18.0 h): 10%
COc1ncccc1-c1cccc2nc3n(c12)CCCCCNC(=O)c1cccc(c1)C(=O)N3 [Example 28, (E)-1^7-(2-methoxypyridin-3-yl)-1^2,1^3-dihydro-1^1H-2,6-diaza-1(2,1)-benzo[d]imidazola-4(1,3)-benzenacycloundecaphane-3,5-dione]	1.1 µM (≈ 0.501 µg/mL)	366 nM	ring closure, yield after HPLC ([4]; from COc1ncccc1-c1cccc2nc(NC(=O)c3cccc(C(=O)O)c3)n(CCCCCN)c12, HATU/DIEA, DMF, 0.49 mM, 16.0 h): 19%
O=C1NCCCCCn2c(nc3cc(F)ccc32)NC(=O)c2cccc1c2 [Example 99, (E)-1^5-fluoro-1^2,1^3-dihydro-1^1H-2,6-diaza-1(2,1)-benzo[d]imidazola-4(1,3)-benzenacycloundecaphane-3,5-dione]	0.2 µM (≈ 0.0733 µg/mL)	4 nM	ring closure, yield after HPLC ([4]; from NCCCCCn1c(NC(=O)c2cccc(C(=O)O)c2)nc2cc(F)ccc21, HATU/DIEA, THF, 0.5 mM, 50.0 °C, 16.0 h): 16%
CN1CCN(Cc2ccc3c(c2)nc2n3CCCCCNC(=O)c3cccc(n3)C(=O)N2)CC1 [Example 102, (E)-1^5-((4-methylpiperazin-1-yl)methyl)-1^2,1^3-dihydro-1^1H-2,6-diaza-1(2,1)-benzo[d]imidazola-4(2,6)-pyridinacycloundecaphane-3,5-dione]	88 µM (≈ 40.6 µg/mL)	9 nM	ring closure, yield after HPLC ([4]; from CN1CCN(Cc2ccc3c(c2)nc(NC(=O)c2cccc(C(=O)O)n2)n3CCCCCN)CC1, T3P/DIEA, DMF, 50.0 mM, 25.0 °C, 1.5 h): 30%

More lines, main results first:

solubility [2]	IC50 [3, 5]	SMILES	also measured
2.5 µM (≈ 0.906 µg/mL)	5 nM	CC1CCCCNC(=O)c2cccc(c2)C(=O)Nc2nc3ccccc3n21 (stereo not shown) [Example 6, 11-methyl-1^1H-2,6-diaza-1(2,1)-benzo[d]imidazola-4(1,3)-benzenacycloundecaphane-3,5-dione]	ring closure, yield after HPLC ([4]; from CC(CCCCN)n1c(NC(=O)c2cccc(C(=O)O)c2)nc2ccccc21, HATU/TEA, MeCN, 4.3 mM, 50.0 °C, 16.0 h, 2 steps): 39%
10 µM (≈ 4.7 µg/mL)	2 nM	C[C@@H]1CCCCNC(=O)c2cccc(c2)C(=O)Nc2nc3cccc(S(=O)(=O)N(C)C)c3n21 [Example 46, (R,E)-N,N,11-trimethyl-3,5-dioxo-1^2,1^3-dihydro-1^1H-2,6-diaza-1(2,1)-benzo[d]imidazola-4(1,3)-benzenacycloundecaphane-1^7-sulfonamide]	ring closure, yield after HPLC ([4]; from C[C@H](CCCCN)n1c(NC(=O)c2cccc(C(=O)O)c2)nc2cccc(S(=O)(=O)N(C)C)c21, HATU/DIEA, THF, 0.5 mM, 50.0 °C, 16.0 h): 24%
95 µM (≈ 43.5 µg/mL)	3 nM	Cc1nnc(-c2cccc3nc4n(c23)[C@H](C)CCCCNC(=O)c2cccc(c2)C(=O)N4)n1C [Example 57, (R,E)-1^7-(4,5-dimethyl-4H-1,2,4-triazol-3-yl)-11-methyl-1^2,1^3-dihydro-1^1H-2,6-diaza-1(2,1)-benzo[d]imidazola-4(1,3)-benzenacycloundecaphane-3,5-dione]	IC50 ([3]; 1 mM ATP, read-out: TAK1 Mean IC50 (nM) @ 1 mM ATP): 6 nM; ring closure, yield after HPLC ([4]; from Cc1nnc(-c2cccc3nc(NC(=O)c4cccc(C(=O)O)c4)n([C@H](C)CCCCN)c23)n1C, HATU/DIEA, THF, 0.5 mM, 50.0 °C, 23.0 h): 31%
95 µM (≈ 43.8 µg/mL)	4 nM	C[C@@H]1CCCCNC(=O)c2cccc(c2)C(=O)Nc2nc3cccc(N4CCN(C)C4=O)c3n21 [Example 65, (R,E)-11-methyl-1^7-(3-methyl-2-oxoimidazolidin-1-yl)-1^2,1^3-dihydro-1^1H-2,6-diaza-1(2,1)-benzo[d]imidazola-4(1,3)-benzenacycloundecaphane-3,5-dione]	ring closure, isolated yield ([1]; from C[C@H](CCCCN)n1c(NC(=O)c2cccc(C(=O)O)c2)nc2cccc(N3CCN(C)C3=O)c21, HATU/DIEA, THF, 0.5 mM, 25.0 °C, 96.0 h): 15%
5.2 µM (≈ 2.31 µg/mL)	3 nM	C[C@@H]1CCCCNC(=O)c2cccc(c2)C(=O)Nc2nc3cccc(-c4cn(C)nn4)c3n21 [Example 66, (R,E)-11-methyl-1^7-(1-methyl-1H-1,2,3-triazol-4-yl)-1^2,1^3-dihydro-1^1H-2,6-diaza-1(2,1)-benzo[d]imidazola-4(1,3)-benzenacycloundecaphane-3,5-dione]	ring closure, yield after HPLC ([4]; from C[C@H](CCCCN)n1c(NC(=O)c2cccc(C(=O)O)c2)nc2cccc(-c3cn(C)nn3)c21, HATU/DIEA, THF, 0.48 mM, 25.0 °C, 78.0 h): 5%
